According to patent publication US9347934B2, “Assays for identifying compounds that modulate bitter taste” (CHROMOCELL CORPORATION, priority 2011, dated 2016):

Legend:
[1] = molecular target: T1, TAS2R38 (Homo sapiens, UniProt P59533); test: Calcium fluorescence functional assay, TAS2R38 cell line; assay type: cell-based; conditions: 20 mM tastant; cell line expressing human TAS2R38 and mouse Gα15
T1 construct: expressed in transfected cells
T1 sequence (P59533 1-333): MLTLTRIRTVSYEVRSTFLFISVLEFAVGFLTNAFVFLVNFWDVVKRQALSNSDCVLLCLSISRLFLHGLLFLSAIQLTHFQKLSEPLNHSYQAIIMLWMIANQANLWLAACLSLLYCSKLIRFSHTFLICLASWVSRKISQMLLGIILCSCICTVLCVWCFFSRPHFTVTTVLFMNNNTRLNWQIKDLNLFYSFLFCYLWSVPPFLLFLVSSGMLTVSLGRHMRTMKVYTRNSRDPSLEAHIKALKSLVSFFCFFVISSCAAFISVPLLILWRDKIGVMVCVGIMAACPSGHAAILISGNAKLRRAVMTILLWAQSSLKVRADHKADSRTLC
Experimental: (§1) Accordingly, each cell line of the panel expressed a human bitter taste receptor and mouse Gα15 signaling protein.
(§2) Probenecid was not included in the load solution.
(§3) After dye loading, cell plates were placed in a fluorescent plate reader (e.g., FDSS6000 (Hamamatsu, Japan)) and receptor stimulation was measured by adding 50 ul of 3× concentrated ligand/agonist stock. Fluorescence was monitored continuously for 10 s before agonist addition and for 100-250 s after stimulation with agonist.
(§4) Receptor Activation is defined as follows: % Activation=[((Maximum signal fluorescence−Minimum signal fluorescence)−(Maximum control fluorescence−Minimum control fluorescence))/(Maximum buffer fluorescence−Minimum buffer fluorescence)]*100 Functional Response=[(Maximum signal fluorescence−Minimum signal fluorescence)−(Maximum control fluorescence−Minimum control fluorescence)] • Signal Fluorescence: refers to the change in fluorescence seen with addition of ligand • Control fluorescence: refers to the change in fluorescence seen with addition of buffer (negative control) • Calcium signals from ligand and control were normalized to the basal fluorescence of the cells prior to the stimulation.
(§5) A concentration analysis was performed and EC50 values were calculated by nonlinear regression using the formula: Y=Bottom+(Top-Bottom)/(1+10^((Log EC50-X)*Hill Slope)), X=log of dose or concentration, Y=Response (increasing as X increases), Top=maximum signal, Bottom=minimum signal.

[2] = molecular target: T2, TAS2R39 (Homo sapiens, UniProt P59534); test: Calcium fluorescence functional assay, TAS2R39 cell line; assay type: cell-based; conditions: 20 mM tastant; cell line expressing human TAS2R39 and mouse Gα15
T2 construct: expressed in transfected cells
T2 sequence (P59534 1-338): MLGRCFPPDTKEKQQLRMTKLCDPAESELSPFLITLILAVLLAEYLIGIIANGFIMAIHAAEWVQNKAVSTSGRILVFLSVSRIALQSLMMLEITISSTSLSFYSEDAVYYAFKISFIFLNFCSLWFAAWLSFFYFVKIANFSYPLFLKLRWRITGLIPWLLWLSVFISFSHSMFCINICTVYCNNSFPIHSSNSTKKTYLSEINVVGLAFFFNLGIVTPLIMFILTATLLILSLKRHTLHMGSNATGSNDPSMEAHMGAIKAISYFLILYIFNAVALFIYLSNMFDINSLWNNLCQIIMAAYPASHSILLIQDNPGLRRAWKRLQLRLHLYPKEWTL
Experimental: as §1, §2, §3, §4, §5

[3] = system: panel of twenty-five bitter taste receptor expressing cell lines; test: Panel of twenty-five bitter receptor expressing cell lines exposed to 20 mM tastant; assay type: cell-based, human; conditions: the remaining nineteen (KCl) or eighteen receptors
Experimental: as §1, §2, §3, §4

[4] = molecular target: T3, TAS2R9 (Homo sapiens, UniProt Q9NYW1); test: Calcium fluorescence functional assay, TAS2R9 cell line; assay type: cell-based; conditions: for TAS2R9 bitter taste receptor activity (changes in intracellular calcium): 20 mM tastant, cell line expressing human TAS2R9 and mouse Gα15
T3 construct: expressed in transfected cells
T3 sequence (Q9NYW1 1-312): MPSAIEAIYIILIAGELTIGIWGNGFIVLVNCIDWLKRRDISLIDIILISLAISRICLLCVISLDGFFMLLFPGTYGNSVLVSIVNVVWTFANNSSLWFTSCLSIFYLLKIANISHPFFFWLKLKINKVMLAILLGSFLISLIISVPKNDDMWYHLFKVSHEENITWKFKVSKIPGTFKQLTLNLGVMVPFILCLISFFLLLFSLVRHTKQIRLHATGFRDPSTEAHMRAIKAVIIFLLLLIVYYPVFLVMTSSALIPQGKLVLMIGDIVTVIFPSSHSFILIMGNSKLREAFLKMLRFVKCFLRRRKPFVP
Experimental: as §1, §2, §3, §4, §5

[5] = molecular target: T4, TAS2R40 (Homo sapiens, UniProt P59535); test: Calcium fluorescence functional assay, TAS2R40 cell line; assay type: cell-based; conditions: 20 mM tastant; cell line expressing human TAS2R40 and mouse Gα15
T4 construct: expressed in transfected cells
T4 sequence (P59535 whole entry): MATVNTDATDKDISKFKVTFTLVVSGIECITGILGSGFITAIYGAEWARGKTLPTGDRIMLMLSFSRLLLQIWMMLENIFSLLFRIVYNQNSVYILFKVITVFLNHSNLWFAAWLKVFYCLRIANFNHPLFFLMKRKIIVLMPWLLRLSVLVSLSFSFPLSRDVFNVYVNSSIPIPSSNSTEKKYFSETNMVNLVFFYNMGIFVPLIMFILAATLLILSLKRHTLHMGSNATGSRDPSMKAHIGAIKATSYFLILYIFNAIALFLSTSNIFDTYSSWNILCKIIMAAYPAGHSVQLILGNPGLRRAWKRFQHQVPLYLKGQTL
Experimental: as §1, §2, §3, §4, §5

[6] = molecular target: T5, TAS2R55 (Homo sapiens, UniProt Q7RTR8); test: Calcium fluorescence functional assay, TAS2R55 cell line; assay type: cell-based; conditions: 20 mM tastant; cell line expressing human TAS2R55 and mouse Gα15
T5 construct: expressed in transfected cells
T5 sequence (Q7RTR8 1-314): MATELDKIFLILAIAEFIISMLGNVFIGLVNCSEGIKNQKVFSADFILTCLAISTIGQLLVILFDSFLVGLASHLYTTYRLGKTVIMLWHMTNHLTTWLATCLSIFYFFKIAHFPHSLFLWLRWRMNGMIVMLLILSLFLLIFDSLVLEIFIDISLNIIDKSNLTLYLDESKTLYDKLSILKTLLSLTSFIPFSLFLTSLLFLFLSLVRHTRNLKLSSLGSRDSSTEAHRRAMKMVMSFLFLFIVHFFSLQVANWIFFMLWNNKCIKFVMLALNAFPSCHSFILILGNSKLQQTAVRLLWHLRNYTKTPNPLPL
Experimental: as §1, §2, §3, §4, §5

[7] = molecular target: T6, TAS2R46 (Homo sapiens, UniProt P59540); test: Calcium fluorescence functional assay, TAS2R46 cell line; assay type: cell-based; conditions: 20 mM tastant; cell line expressing human TAS2R46 and mouse Gα15
T6 construct: expressed in transfected cells
T6 sequence (P59540 1-309): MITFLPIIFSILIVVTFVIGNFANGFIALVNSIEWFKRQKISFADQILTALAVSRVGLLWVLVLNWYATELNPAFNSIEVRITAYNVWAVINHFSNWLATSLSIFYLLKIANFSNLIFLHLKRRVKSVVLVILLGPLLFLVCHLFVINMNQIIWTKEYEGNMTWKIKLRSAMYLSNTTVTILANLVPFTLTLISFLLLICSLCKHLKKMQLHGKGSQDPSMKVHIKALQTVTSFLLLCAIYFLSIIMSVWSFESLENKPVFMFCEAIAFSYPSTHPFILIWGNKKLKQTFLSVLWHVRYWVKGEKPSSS
Experimental: as §1, §2, §3, §4, §5

[8] = molecular target: T7, TAS2R4 (Homo sapiens, UniProt Q9NYW5); test: Calcium fluorescence functional assay, TAS2R4 cell line; assay type: cell-based; conditions: for TAS2R4 bitter taste receptor activity (changes in intracellular calcium): 20 mM tastant, cell line expressing human TAS2R4 and mouse Gα15
T7 construct: expressed in transfected cells
T7 sequence (Q9NYW5 1-299): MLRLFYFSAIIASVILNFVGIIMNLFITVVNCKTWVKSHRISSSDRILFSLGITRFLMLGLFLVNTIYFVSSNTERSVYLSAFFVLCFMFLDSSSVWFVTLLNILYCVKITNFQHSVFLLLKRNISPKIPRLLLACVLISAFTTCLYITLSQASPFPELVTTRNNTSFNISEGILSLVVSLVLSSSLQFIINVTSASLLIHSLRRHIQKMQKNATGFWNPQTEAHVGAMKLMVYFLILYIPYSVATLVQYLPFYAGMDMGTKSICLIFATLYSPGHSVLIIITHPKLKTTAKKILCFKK
Experimental: as §1, §2, §3, §4, §5

SMILES	TAS2R38 bitter taste receptor activity (changes in intracellular calcium) [1]	TAS2R39 bitter taste receptor activity (changes in intracellular calcium) [2]	functional response of the remaining (non-responding) receptors of the panel, threshold [3] [%]	TAS2R9 bitter taste receptor activity (changes in intracellular calcium) [4]	TAS2R40 bitter taste receptor activity (changes in intracellular calcium) [5]	TAS2R55 bitter taste receptor activity (changes in intracellular calcium) [6]	TAS2R46 bitter taste receptor activity (changes in intracellular calcium) [7]	TAS2R4 bitter taste receptor activity (changes in intracellular calcium) [8]	EC50 ([4]; increasing concentrations of KCl, TAS2R9 cell line (FIG. 3), read-out: EC50 value, activation of TAS2R9) [mM]	EC50 ([8]; increasing concentrations of KCl, TAS2R4 cell line (FIG. 3), read-out: EC50 value, activation of TAS2R4) [mM]
CC1=CC(=O)NS(=O)(=O)O1 [Acesulfame K]	did not induce	did not induce	≤ 40	induced	did not induce	did not induce	did not induce	induced		
[Cl-].[K+] [KCl, potassium chloride]	did not induce	did not induce	≤ 40	induced	did not induce	did not induce	did not induce	induced	5 to 15	5 to 15
CC(O)C(=O)[O-].[K+] (centres unmarked) [Potassium lactate, potassium lactate]	did not induce	did not induce	≤ 40	induced	did not induce	did not induce	induced	induced		
